Where two headings read alike, the source gives them in different places.
Experiments:
Test in all cases: Glasshouse assay for herbicidal activity, pre-/post-emergence (percentage phytotoxicity)
Assay type in all cases: in vivo
[1] = system: Echinochloa crus-galli (ECHCG); conditions: Rate 250 g/ha, 100%=total damage, 0%=no damage; for pest or weed control at 250 g/ha: Echinochloa crus-galli
Method: (§1) Seeds of a variety of monocotyledonous and dicotyledonous test plants are sown in standard soil in pots. The plants are cultivated for one day (for pre-emergence) or for about 12 days (for post-emergence) under controlled conditions in a glasshouse (warm climate species at 24/18° C., cool climate species at 20/16° C., both at day/night; 16 hours light; 65% humidity). The test plants are then grown on, in a glasshouse (greenhouse) under controlled conditions (warm climate species at 24/18° C., cool climate species at 20/16° C., both at day/night; 16 hours light; 65% humidity) and are watered twice daily. 15 days after application of the test herbicide (15DAA) (for post-emergence), and 20 days after application of the test herbicide (20DAA) (for pre-emergence), the test plants are evaluated visually, and an assessed percentage phytotoxicity score is given for each herbicidal application on each plant species (with 100%=total damage to plant; 0%=no damage to plant). The plant species tested are as follows: Alopecurus myosuroides (ALOMY), Avena fatua (AVEFA), Lolium perenne (LOLPE), Echinochloa crus-galli (ECHCG).

Avena fatua (AVEFA) = conditions: Rate 250 g/ha, 100%=total damage, 0%=no damage; for pest or weed control at 250 g/ha: Avena fatua
Method: as §1

[2] = system: Alopecurus myosuroides (ALOMY); conditions: Rate 250 g/ha, 100%=total damage, 0%=no damage; for pest or weed control at 250 g/ha: Alopecurus myosuroides
Method: as §1

Lolium perenne (LOLPE) = conditions: Rate 250 g/ha, 100%=total damage, 0%=no damage; for pest or weed control at 250 g/ha: Lolium perenne
Method: as §1

[3] = post-emergence, visual assessment 15 DAA
[4] = pre-emergence, visual assessment 20 DAA
[5] = post-emergence, 360 h, post-emergence, visual assessment 15 DAA, read-out: Post-emergence herbicidal activity (percentage phytotoxicity), ECHCG POST
[6] = pre-emergence, 480 h, pre-emergence, visual assessment 20 DAA, read-out: Pre-emergence herbicidal activity (percentage phytotoxicity), ECHCG PRE
[7] = post-emergence, 360 h, post-emergence, visual assessment 15 DAA, read-out: Post-emergence herbicidal activity (percentage phytotoxicity), AVEFA POST
[8] = pre-emergence, 480 h, pre-emergence, visual assessment 20 DAA, read-out: Pre-emergence herbicidal activity (percentage phytotoxicity), AVEFA PRE
[9] = 360 h, post-emergence, visual assessment 15 DAA, read-out: Post-emergence herbicidal activity (percentage phytotoxicity), ALOMY POST
[10] = 480 h, pre-emergence, visual assessment 20 DAA, read-out: Pre-emergence herbicidal activity (percentage phytotoxicity), ALOMY PRE
[11] = post-emergence, 360 h, post-emergence, visual assessment 15 DAA, read-out: Post-emergence herbicidal activity (percentage phytotoxicity), LOLPE POST
[12] = pre-emergence, 480 h, pre-emergence, visual assessment 20 DAA, read-out: Pre-emergence herbicidal activity (percentage phytotoxicity), LOLPE PRE

SMILES | Post-emergence herbicidal activity (percentage phytotoxicity), ECHCG POST [1, 3] [%] | Pre-emergence herbicidal activity (percentage phytotoxicity), ECHCG PRE [1, 4] [%] | Post-emergence herbicidal activity (percentage phytotoxicity), AVEFA POST (Avena fatua (AVEFA); [3]) [%] | Pre-emergence herbicidal activity (percentage phytotoxicity), AVEFA PRE (Avena fatua (AVEFA); [4]) [%] | Post-emergence herbicidal activity (percentage phytotoxicity), ALOMY POST [2, 3] [%] | Pre-emergence herbicidal activity (percentage phytotoxicity), ALOMY PRE [2, 4] [%] | Post-emergence herbicidal activity (percentage phytotoxicity), LOLPE POST (Lolium perenne (LOLPE); [3]) [%] | Pre-emergence herbicidal activity (percentage phytotoxicity), LOLPE PRE (Lolium perenne (LOLPE); [4]) [%] | pest or weed control at 250 g/ha [1, 5] [%] | pest or weed control at 250 g/ha [1, 6] [%] | pest or weed control at 250 g/ha (Avena fatua (AVEFA); [7]) [%] | pest or weed control at 250 g/ha (Avena fatua (AVEFA); [8]) [%] | pest or weed control at 250 g/ha [2, 9] [%] | pest or weed control at 250 g/ha [2, 10] [%] | pest or weed control at 250 g/ha (Lolium perenne (LOLPE); [11]) [%] | pest or weed control at 250 g/ha (Lolium perenne (LOLPE); [12]) [%]
Cc1cc(C)c(C2C(=O)CC(CCNC(=O)Nc3ccc(F)cn3)C2=O)c(C)c1.Cl (centres unmarked) [Compound A93] | 100 | 90 | 90 | 70 | 90 | 90 | 70 | 90 |  |  |  |  |  |  |  | 
Cc1cc(-c2ncc(F)cn2)cc(C)c1C1C(=O)CC(CCNc2ccc(C(F)(F)F)cn2)C1=O (centres unmarked) [Compound A120] |  |  |  |  |  |  |  |  | 100 | 90 | 100 | 90 | 90 | 90 | 90 | 90
Cc1cc(-c2ncc(Cl)cc2F)cc(C)c1C1C(=O)CC(CCNC(=O)C2=NOC(C)(C)C2)C1=O (centres unmarked) [Compound A117] |  |  |  |  |  |  |  |  | 100 | 80 | 100 | 80 | 100 | 90 | 100 | 80
Cc1cc(-n2cc(Cl)cn2)cc(C)c1C1C(=O)CC(CCNc2ccc(C(F)(F)F)cn2)C1=O (centres unmarked) [Compound A100] |  |  |  |  |  |  |  |  | 100 | 90 | 100 | 50 | 90 | 60 | 100 | 70
Cc1cc(-n2cc(Cl)cn2)cc(C)c1C1C(=O)CC(CCNc2ccc([N+](=O)[O-])cn2)C1=O (centres unmarked) [Compound A99] |  |  |  |  |  |  |  |  | 100 | 0 | 90 | 0 | 70 | 0 | 60 | 0
Cc1cc(-n2cc(Cl)cn2)cc(C)c1C1C(=O)CC(CCNc2ncc(C(F)(F)F)cc2F)C1=O (centres unmarked) [Compound A98] |  |  |  |  |  |  |  |  | 100 | 90 | 100 | 70 | 90 | 40 | 90 | 90
Cc1cc(-c2ncc(C#N)cn2)cc(C)c1C1C(=O)CC(CCNC(=O)C2=NOC(C)(C)C2)C1=O (centres unmarked) [Compound A114] |  |  |  |  |  |  |  |  | 100 | 70 | 100 | 80 | 90 | 90 | 100 | 70
Cc1cc(-c2ncc(F)cc2F)cc(C)c1C1C(=O)CC(CCNC(=O)C2=NOC(C)(C)C2)C1=O (centres unmarked) [Compound A111] |  |  |  |  |  |  |  |  | 100 | 90 | 100 | 100 | 100 | 100 | 40 | 90
Cc1cc(C)c(C2C(=O)CC(CCNc3ccc(C#N)cn3)C2=O)c(C)c1 (centres unmarked) [Compound A107] |  |  |  |  |  |  |  |  | 100 | 100 | 100 | 90 | 100 | 90 | 100 | 100
Cc1cc(C)c(C2C(=O)CC(CCNc3ccc(C#N)cc3C(F)(F)F)C2=O)c(C)c1 (centres unmarked) [Compound A106] |  |  |  |  |  |  |  |  | 90 | 90 | 90 | 40 | 90 | 70 | 90 | 60
Cc1cc(-c2ncc(Br)cn2)cc(C)c1C1C(=O)CC(CCNC(=O)C2=NOC(C)(C)C2)C1=O (centres unmarked) [Compound A116] |  |  |  |  |  |  |  |  | 100 | 90 | 100 | 90 | 100 | 90 | 100 | 90
Cc1cc(C)c(C2C(=O)CC(CCNc3ccc([N+](=O)[O-])cn3)C2=O)c(C)c1 (centres unmarked) [Compound A96] |  |  |  |  |  |  |  |  | 100 | 100 | 100 | 90 | 90 | 80 | 100 | 100
Cc1cc(C)c(C2C(=O)CC(CCNc3ncccc3C#N)C2=O)c(C)c1 (centres unmarked) [Compound A124] |  |  |  |  |  |  |  |  | 100 | 90 | 60 | 40 | 80 | 60 | 80 | 80
CC#Cc1cc(C)c(C2C(=O)CC(CCNC(=O)Nc3ccccn3)C2=O)c(C)c1 (centres unmarked) [Compound A92] |  |  |  |  |  |  |  |  | 100 | 80 | 100 | 30 | 90 | 70 | 100 | 70
CC#Cc1cc(C)c(C2C(=O)CC(CCNC(=O)C3=NOC(C)(C)C3)C2=O)c(C)c1 (centres unmarked) [Compound A108] |  |  |  |  |  |  |  |  | 100 | 100 | 100 | 90 | 100 | 100 | 100 | 100
C=Cc1cc(C)cc(C)c1C1C(=O)CC(CCNC(=O)C2=NOC(C)(C)C2)C1=O (racemic) [Compound A122, N-[2-[3-(2,4-dimethyl-6-vinyl-phenyl)-2,4-dioxo-cyclopentyl]ethyl]-5,5-dimethyl-4H-isoxazole-3-carboxamide] |  |  |  |  |  |  |  |  | 90 | 0 | 90 | 0 | 90 | 0 | 80 | 0

— US10301295B2, “Herbicidal compounds” (Syngenta Participations AG, priority 2014, dated 2019)
